This note sets out measurements from US12590126B2, “Compounds for selective disruption of protein-protein interactions” (SyntheX, Inc., priority 2017, dated 2026).

Where two headings read alike, the source gives them in different places. Where a SMILES comes first, the peptide text is derived from it. [ ]: non-standard residue; d: D form. 2Nal = N[C@@H](Cc1ccc2ccccc2c1)C(=O)O; dNle = CCCC[C@@H](N)C(=O)O; dAbu = CC[C@@H](N)C(=O)O; Ahx = NCCCCCC(=O)O; βAla = NCCC(=O)O

One may read the IC50 as the point on the concentration scale where inhibition reaches its midpoint. Low values mean inhibition by little substance, high ones a need for much substance. As a reminder, the AUC(0-inf) is the area under the concentration-time curve extrapolated to infinity. Lower therefore signals low exposure. Usually AUC(0-t) stands for the area under the concentration-time curve up to a stated or last time point. High values mean high exposure, low ones low exposure. One may read the MRT inf as the average time that molecules of a dose stay in the body.

For one data set, the system named is SSP-25 cells. The data set can be described thus: xCELLigence cell death assay in SSP-25 cells (cellular assay for RAD51 inhibition). The note with it: concentration gradient added at 20 hour mark, only values with R^>0.85 shown. Format: cell-based. On the procedure: The efficacy of the peptides described herein was assessed by their ability to cause death in SSP-25 cells, which have amplification of RAD51 and are dependent on its activity.
First, 5,000 SSP25 cells were plated, and adherence and growth was measured for 20 hours using live measurements of current impedance through the plate using the xCELLigence™ instrument. At the 20 hour mark, a concentration gradient of each compound or a PBS control was added to the SSP-25 cells, which were cultured in […] RMPI media with 10% FBS. […] Only values with confidence and R^>0.85 are shown.

A further data set concerns fresh human RBCs. Format: cell-based. The note with it: red cells of human, 1 h, 250. As to the method: To assess the nonspecific lytic properties of each compounds disclosed herein, each mentioned compound was tested for hemolytic properties against fresh human RBCs. Briefly, donor blood was drawn into a K2EDTA anticoagulant tube from multiple O+ donors. The blood was washed 3 times in PBS. RBCs were diluted to 2% in PBS and compounds were added at various concentrations. Samples were incubated at 37 C for 1 hr, then centrifuged at 2200 rpm for 5 min. Supernatants were measured for absorbance at 450 nm or 405 nm. The percentage hemolysis was calculated as lysis relative to 1% Triton X-100 incubation.

Data set [1] is described as follows: in vitro. The note with it: mouse, microsomes.
Protocol: (§1) For HLM and MLM stability studies, each compound was incubated with the liver microsome mixture for up to an hour at 37 C in the presence of NADPH.
(§2) After the incubations, the reactions were stopped and the compounds were analyzed according to the method developed for each.
Data set [2] can be described thus: in vitro. The note with it: human, microsomes.
Protocol: as §1, §2
A short description of data set [3]: Mouse pharmacokinetics, IV and IP dosing. The note with it: for AUC(0-inf) / AUC(0-t) / C0 / MRT inf / clearance / Vd / half-life: in vivo. The format is in vivo, mice. As to the method:
The pharmocokinetic parameters in mice by both intravenous (IV) and intraperitoneal (IP) dosing, as well as the serum and microsome stability for each of compound 22, 23, 24, and 25 was determined. Bioanalytical methods were developed for each compound using an LC-MS/MS method with LLOQ>100 ng/ml.
For in-vivo PK work, at least 3 mice were used per timepoint. For each compound, the animals were injected either IV or IP with the compound. IV injections used 1 mg/kg, and IP injections were at 15 mg/kg. Blood was collected at the indicated timepoints and analyzed according to the bioanalytical method developed.

The nature of data set [4]: in vitro. The note with it: mouse, serum.
Protocol: Serum stability data was obtained using the appropriate animal serum, each incubated with the compound for up to two hours at 37 C.
Where [5] appears, read: iv, 1 mg/kg, 1 mg/kg IV, read-out: Vss.
Setting [6] is: iv, 1 mg/kg, 1 mg/kg IV, read-out: Vz.
Setting [7] is: iv, 1 mg/kg, 1 mg/kg IV, read-out: t½ (converted).
The mark [8] stands for this setting: iv, 1 mg/kg, IV (1 mg/kg), read-out: Half-life Mouse IV.

In the data set on SSP-25 cells, `CCCC[C@@H](NC(=O)[C@@H](CC(C)C)NC(C)=O)C(=O)N[C@H](CCCNC(=N)N)C(=O)N[C@H](CC)C(=O)N[C@@H](C(=O)N[C@H](CCCNC(=N)N)C(=O)N[C@H](CC(C)C)C(=O)N[C@H](CCCNC(=N)N)C(=O)N[C@@H](C(=O)NCC(=O)N[C@H](CC(C)C)C(=O)N[C@H](CCCNC(=N)N)C(=O)N[C@H](CCCCN)C(=O)N[C@H](CCCNC(=N)N)C(=O)N[C@H](CCCNC(=N)N)C(=O)N[C@H](CCCNC(=N)N)C(=O)N[C@H](CCCNC(=N)N)C(=O)N[C@H](CCCNC(=N)N)C(=O)NCC(=O)N[C@@H](Cc1ccc2ccccc2c1)C(N)=O)C(C)C)C(C)C` [Compound 15, Ac-l{d-norLeucine}r(abu)vrlrvGlrkrrrrrGΦ-NH2] (Ac-[dL][dNle][dR][dAbu][dV][dR][dL][dR][dV]G[dL][dR][dK][dR][dR][dR][dR][dR]G[2Nal]-NH2) displayed an IC50 of 7.2 µM. Besides, the “% Hemolysis (250 uM)” value in the data set with fresh human RBCs is 49%.
In the same order, the values of `CCCC[C@@H](NC(=O)[C@@H](CC(C)C)NC(C)=O)C(=O)N[C@H](CCCNC(=N)N)C(=O)N[C@H](CO)C(=O)N[C@@H](C(=O)N[C@H](CCCNC(=N)N)C(=O)N[C@H](CC(C)C)C(=O)N[C@H](CCCNC(=N)N)C(=O)N[C@@H](C(=O)NCCC(=O)N[C@H](CC(C)C)C(=O)N[C@H](CCCNC(=N)N)C(=O)N[C@H](CCCCN)C(=O)N[C@H](CCCNC(=N)N)C(=O)N[C@H](CCCNC(=N)N)C(=O)N[C@H](CCCNC(=N)N)C(=O)N[C@H](CCCNC(=N)N)C(=O)N[C@H](CCCNC(=N)N)C(=O)NCC(=O)N[C@@H](Cc1ccc2ccccc2c1)C(N)=O)C(C)C)C(C)C` [Compound 17, Ac-l{d-norLeucine}rsvdrv[beta-ALA]lrkrrrrrGΦ-NH2] (Ac-[dL][dNle][dR][dS][dV][dR][dL][dR][dV][βAla][dL][dR][dK][dR][dR][dR][dR][dR]G[2Nal]-NH2) are 20 µM and 32%.
As for `CCCC[C@@H](NC(=O)[C@@H](CCCNC(=N)N)NC(=O)[C@@H](CC(C)C)NC(=O)[C@@H](CCCNC(=N)N)NC(=O)[C@@H](CCCNC(=N)N)NC(=O)[C@@H](CC)NC(=O)[C@@H](CCCNC(=N)N)NC(=O)[C@@H](CCCC)NC(=O)[C@@H](CC(C)C)NC(C)=O)C(=O)NCCC(=O)N[C@H](CC(C)C)C(=O)N[C@H](CCCNC(=N)N)C(=O)N[C@H](CCCCN)C(=O)N[C@H](CCCNC(=N)N)C(=O)N[C@H](CCCNC(=N)N)C(=O)N[C@H](CCCNC(=N)N)C(=O)N[C@H](CCCNC(=N)N)C(=O)N[C@H](CCCNC(=N)N)C(=O)NCC(=O)N[C@@H](Cc1ccc2ccccc2c1)C(N)=O` [Compound 18, Ac-l{d-norLeucine}r(abu)rrlr[d-norLeucine][beta-ALA]lrkrrrrrGΦ-NH2] (Ac-[dL][dNle][dR][dAbu][dR][dR][dL][dR][dNle][βAla][dL][dR][dK][dR][dR][dR][dR][dR]G[2Nal]-NH2), half-maximal inhibition in the data set on SSP-25 cells (IC50) was put at 17.8 µM. Further, in the data set on fresh human RBCs, the “% Hemolysis (250 uM)” value is 17%.
On to `CCCC[C@@H](NC(=O)[C@@H](CC(C)C)NC(=O)CN(C)S(=O)(=O)c1cccc2c(N(C)C)cccc12)C(=O)N[C@H](CCCNC(=N)N)C(=O)N[C@H](CO)C(=O)N[C@@H](C(=O)N[C@H](CCCNC(=N)N)C(=O)N[C@H](CC(C)C)C(=O)N[C@H](CCCNC(=N)N)C(=O)N[C@@H](C(=O)NCC(=O)N[C@H](CC(C)C)C(=O)N[C@H](CCCNC(=N)N)C(=O)N[C@H](CCCNC(=N)N)C(=O)N[C@H](CCCNC(=N)N)C(=O)N[C@H](CCCNC(=N)N)C(=O)N[C@H](CCCNC(=N)N)C(=O)N[C@H](CCCNC(=N)N)C(=O)N(C)CC(=O)N(C)CC(=O)OC)C(C)C)C(C)C` [Compound 20, DANSYL-Sarcosine-l{d-norLeucine}rsvrlrvGlrrrrrr-sarcosine-sarcosine-OMe], for which the “% Hemolysis (250 uM)” value with fresh human RBCs is 84%.
Take `CCCC[C@@H](NC(=O)[C@@H](CC(C)C)NC(C)=O)C(=O)N[C@H](CCCNC(=N)N)C(=O)N[C@H](CO)C(=O)N[C@@H](C(=O)N[C@H](CCCNC(=N)N)C(=O)N[C@H](CC(C)C)C(=O)N[C@H](CCCNC(=N)N)C(=O)N[C@@H](C(=O)NCC(=O)N[C@H](CC(C)C)C(=O)N[C@H](CCCNC(=N)N)C(=O)N[C@H](CCCNC(=N)N)C(=O)N[C@H](CCCNC(=N)N)C(=O)N[C@H](CCCNC(=N)N)C(=O)N[C@H](CCCNC(=N)N)C(=O)N[C@H](CCCNC(=N)N)C(=O)N(C)CC(=O)N(C)CC(=O)OC)C(C)C)C(C)C` [Compound 21, Ac-l{d-norLeucine}rsvrlrvGlrrrrrr-sarcosine-sarcosine-OMe]: the midpoint of inhibition in the data set on SSP-25 cells, the IC50, lay at 25 µM. Besides, the “% Hemolysis (250 uM)” value with fresh human RBCs was found to be 31%.
Regarding `CCCC[C@@H](NC(=O)[C@@H](CC(C)C)NC(C)=O)C(=O)N[C@H](CCCNC(=N)N)C(=O)N[C@H](C)C(=O)N[C@@H](C(=O)N[C@H](CCCNC(=N)N)C(=O)N[C@H](CC(C)C)C(=O)N[C@H](CCCNC(=N)N)C(=O)N[C@@H](C(=O)NCCC(=O)N[C@H](CC(C)C)C(=O)N[C@H](CCCNC(=N)N)C(=O)NCCCCCC(=O)N[C@H](CCCNC(=N)N)C(=O)NCCCCCC(=O)N[C@H](CCCNC(=N)N)C(=O)NCCCCCC(=O)N[C@H](CCCNC(=N)N)C(=O)NCCCCCC(=O)N[C@H](CCCNC(=N)N)C(=O)NCCCCCC(=O)N[C@H](CCCNC(=N)N)C(N)=O)C(C)C)C(C)C` [Compound 23, Ac-l{d-norLeucine}ravrlrv[beta-ALA]lr(Ahx)r(Ahx)r(Ahx)r(Ahx)r(Ahx)r-NH2] (Ac-[dL][dNle][dR][dA][dV][dR][dL][dR][dV][βAla][dL][dR][Ahx][dR][Ahx][dR][Ahx][dR][Ahx][dR][Ahx][dR]-NH2), the half-life was 41.8 min in the data set “in vitro [1]”; 108 min in “in vitro [2]”; 33.9 min in data set [3] (setting [7]); 33.8 min in data set [3] (setting [8]); more than 500 min in the data set “in vitro [4]”. In the data set on SSP-25 cells, this compound displayed an IC50 of 20.6 µM. Also, the “AUC Extr” value in data set [3] (1 mg/kg IV) stood at 28.5%. Besides, the figures for the AUC(0-inf) in data set [3] (1 mg/kg IV) and in data set [3] (15 mg/kg IP) were 490 ng·h/mL and 341 ng·h/mL, respectively. The AUC(0-t) in data set [3] (1 mg/kg IV) was found to be 347 ng·h/mL. In data set [3] (1 mg/kg IV), this compound showed a C0 of 1480 ng/mL. For the same compound, the figures for the MRT inf in data set [3] (1 mg/kg IV) and in data set [3] (15 mg/kg IP) were 44.3 min and 394 min, respectively. Besides, in data set [3] (1 mg/kg IV), the clearance was determined as 36.1 mL/min/kg. Moreover, the figures for the Vd in data set [3] (setting [5]) and in data set [3] (setting [6]) were 1.56 L/kg and 1.71 L/kg, respectively. For the same compound, the “% Hemolysis (250 uM)” value in the data set with fresh human RBCs is on record as 3%.
`CCCC[C@@H](NC(=O)[C@@H](CC(C)C)NC(C)=O)C(=O)N[C@H](CCCNC(=N)N)C(=O)N[C@H](C)C(=O)N[C@@H](C(=O)N[C@H](CCCNC(=N)N)C(=O)N[C@H](CC(C)C)C(=O)N[C@H](CCCNC(=N)N)C(=O)N[C@@H](C(=O)NCCC(=O)N[C@H](CC(C)C)C(=O)N[C@H](CCCNC(=N)N)C(=O)NCCCCCC(=O)N[C@H](CCCNC(=N)N)C(=O)NCCCCCC(=O)N[C@H](CCCNC(=N)N)C(=O)NCCCCCC(=O)N[C@H](CCCNC(=N)N)C(=O)NCCCCCC(=O)N[C@H](CCCNC(=N)N)C(=O)NCCCCCC(=O)N[C@H](CCCNC(=N)N)C(=O)NCCCCCC(=O)N[C@H](Cc1ccc(O)cc1)C(N)=O)C(C)C)C(C)C` [Compound 24, Ac-l{d-norLeucine}ravrlrv[beta-ALA]lr(Ahx)r(Ahx)r(Ahx)r(Ahx)r(Ahx)r(Ahx)y-NH2] (Ac-[dL][dNle][dR][dA][dV][dR][dL][dR][dV][βAla][dL][dR][Ahx][dR][Ahx][dR][Ahx][dR][Ahx][dR][Ahx][dR][Ahx][dY]-NH2): the half-life was 116 min in “in vitro [1]”; 56.8 min in “in vitro [2]”; 113 min in data set [3] (ip, 15 mg/kg, 15 mg/kg IP, read-out: t½ (converted)); 113 min in data set [3] (ip, 15 mg/kg, IP (15 mg/kg), read-out: Half-life Mouse IP); 32.9 min in data set [3] (setting [7]); 33 min in data set [3] (setting [8]). The compound further gave a half-life in the data set “in vitro [4]” of 277 min. Also, the IC50 with SSP-25 cells turned out to be 6.2 µM. For the same compound, in data set [3] (1 mg/kg IV), the “AUC Extr” value was determined as 28.8%. In data set [3] (15 mg/kg IP), this compound returned a Vss of 2.95 L/kg. The AUC(0-inf) in data set [3] (1 mg/kg IV) came out at 528 ng·h/mL; in data set [3] (15 mg/kg IP), 1010 ng·h/mL. The compound also showed an AUC(0-t) in data set [3] (1 mg/kg IV) of 375 ng·h/mL. Besides, the C0 in data set [3] (1 mg/kg IV) amounted to 683 ng/mL. Moreover, the MRT inf in data set [3] (1 mg/kg IV) stood at 46.7 min; in data set [3] (15 mg/kg IP), 1070 min. In data set [3] (1 mg/kg IV), the clearance amounted to 31.7 mL/min/kg. The Vd is 1.48 L/kg in data set [3] (setting [5]) and 1.51 L/kg in data set [3] (setting [6]). Besides, the “% Hemolysis (250 uM)” value with fresh human RBCs was 3%.
